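All cell lines were grown in 96-well plates and treated with compound for 48 hours. Definition used: TGI = concentration required for complete inhibition of growth.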
Columns and labels:
Assay in all cases: NCI tumour cell line growth inhibition, 48 h
SN12C renal = system: SN12C renal
SW-620 colon = system: SW-620 colon
NCI-H226 lung = system: NCI-H226 lung
OVCAR-8 ovarian = system: OVCAR-8 ovarian
KM12 colon = system: KM12 colon
HOP-92 NSCLC = system: HOP-92 NSCLC
OVCAR-4 ovarian = system: OVCAR-4 ovarian
LOX IMVI melanoma = system: LOX IMVI melanoma
HCT-15 colon = system: HCT-15 colon
DMS 114 small cell lung = system: DMS 114 small cell lung
KM20L2 colon = system: KM20L2 colon
SNB-78 CNS = system: SNB-78 CNS
XF 498 CNS = system: XF 498 CNS

Structure (SMILES) | TGI (SN12C renal) [µM] | TGI (SW-620 colon) [µM] | TGI (NCI-H226 lung) [µM] | TGI (OVCAR-8 ovarian) [µM] | TGI (KM12 colon) [µM] | TGI (HOP-92 NSCLC) [µM] | TGI (OVCAR-4 ovarian) [µM] | TGI (LOX IMVI melanoma) [µM] | TGI (HCT-15 colon) [µM] | TGI (DMS 114 small cell lung) [µM] | TGI (KM20L2 colon) [µM] | TGI (SNB-78 CNS) [µM] | TGI (XF 498 CNS) [µM]
CCOc1cc(C2CC(c3ccc(NS(=O)(=O)c4cc([N+](=O)[O-])ccc4C)cc3)=NN2C(=O)c2ccccc2)ccc1O (stereo not given) | 58.9 | > 100 | > 100 | > 100 | > 100 | 47.6 | > 100 | > 100 | > 100 | – | – | – | –
Oc1ccccc1/C=N/c1nc2cc3sc(/N=C/c4ccccc4O)nc3cc2s1 | > 100 | > 100 | 98.5 | > 100 | > 100 | > 100 | > 100 | > 100 | > 100 | – | – | – | –
COC(=O)[C@]12CC[C@H]3CN(C(=O)OCc4ccccc4)[C@H]([C@H]31)[C@H](c1ccco1)N2S(=O)(=O)c1ccc(C)cc1 | 39 | > 100 | 58.7 | > 100 | 38.5 | 56.1 | > 100 | 32.3 | 30.8 | – | – | – | –
O=C1C=CC(=O)N1Nc1ccc([N+](=O)[O-])cc1[N+](=O)[O-] | > 100 | > 100 | > 100 | > 100 | > 100 | > 77 | > 79.9 | > 100 | > 100 | > 100 | > 100 | > 100 | –
COc1ccc(C(OCC2OC(n3cc(C)c(=O)[nH]c3=O)CC2n2cc(Cn3cc(F)c(=O)[nH]c3=O)nn2)(c2ccccc2)c2ccccc2)cc1 (stereo not given) | 22.8 | 21.4 | 36.7 | > 100 | 14.3 | 19.5 | 47.3 | > 100 | 23.3 | – | – | – | –
C=CCO/N=C/c1cc(NC(=S)c2ccoc2C)ccc1Cl | 30.3 | > 100 | 41.3 | 33.9 | 25.5 | 42.3 | 20.6 | 44.5 | 23.8 | – | – | – | –
COc1ccc(CC(O)CN2CCOCC2)cc1 (stereo not given) | > 100 | > 100 | > 100 | > 100 | > 100 | > 100 | > 100 | > 100 | > 100 | – | – | – | –
Cc1cn(C2OC(C)(CO)C(O)C2O)c(=O)[nH]c1=O (stereo not given) | > 100 | > 100 | – | > 100 | > 100 | > 100 | > 100 | > 100 | > 100 | > 100 | – | – | –
c1ccc2sc(SCSc3nc4ccccc4s3)nc2c1 | > 100 | > 100 | > 100 | > 100 | > 100 | > 100 | > 100 | > 100 | > 100 | – | – | – | –
Cc1c(C(=O)CSc2nc3ccccc3c(=O)n2-c2ccccc2)c(=O)n(-c2ccccc2)n1C | > 100 | > 100 | 69.2 | – | > 100 | 95.8 | > 100 | > 100 | > 100 | > 100 | > 100 | > 100 | > 100
COc1cc(C2CC(C)(Nc3ccccc3)Oc3cc4c(cc32)OCO4)cc(OC)c1OC (stereo not given) | > 100 | > 100 | 7.12 | > 100 | > 37.5 | > 100 | > 78.5 | > 100 | > 100 | – | – | – | –

Source: PubChem BioAssay (NCI)
